# Measurements as given in the supplement of paper PMC6045584.
# ± gives the standard deviation of the averaged measurements.
# Legend:
# [1] = compound: CN1CCN(c2nc(C3=C(c4c[nH]c5ccccc45)C(=O)NC3=O)c3ccccc3n2)CC1 [SOTRASTAURIN/AEB071]; assay: surviving fraction relative to DMSO-only wells; higher = less growth inhibition; conditions: exposure time: 5 days
# Method in brief: (§1)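 Viability values are CellTiter-Glo luminescence readings, given as surviving fraction against the median of DMSO-only wells. The readings were taken after 10 minutes at room temperature, following five days of continuous exposure to inhibitors at 0.5, 1, 5, 10, 50, 100, 500 and 1000 nM that began 24 hours after log-phase tumour cell lines were seeded at 250–500 cells per well in 384-well plates. Every line was screened three times and kept only if replicate Pearson r >0.7 and median Z' >0.3.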
# [2] = compound: CCn1c(C(=O)N(C2CC2)C2CC2)cc2c3c(ncn3C)c(Nc3cc(C)n(C)n3)nc21; assay: as above; conditions: exposure time: 5 days
# Method in brief: as §1
Test System,surviving fraction ([1]; 0.5 nM),surviving fraction ([1]; 1 nM),surviving fraction ([1]; 5 nM),surviving fraction ([1]; 10 nM),surviving fraction ([1]; 50 nM),surviving fraction ([1]; 100 nM),surviving fraction ([1]; 500 nM),surviving fraction ([1]; 1000 nM),surviving fraction ([2]; 0.5 nM),surviving fraction ([2]; 1 nM),surviving fraction ([2]; 5 nM),surviving fraction ([2]; 10 nM),surviving fraction ([2]; 50 nM),surviving fraction ([2]; 100 nM),surviving fraction ([2]; 500 nM),surviving fraction ([2]; 1000 nM)
CHLA90 AUTONOMIC GANGLIA,0.975 ± 0.024,0.962 ± 0.046,1.02 ± 0.074,0.943 ± 0.081,1.05 ± 0.12,1 ± 0.083,1.06 ± 0.097,0.978 ± 0.17,0.986 ± 0.026,0.944 ± 0.037,0.905 ± 0.032,0.918 ± 0.095,0.961 ± 0.011,0.975 ± 0.003,0.945 ± 0.065,0.968 ± 0.026
143B BONE,1.067 ± 0.0071,1.08 ± 0.037,1.14 ± 0.14,1.04 ± 0.014,1.09 ± 0.037,1.14 ± 0.11,1.12 ± 0.096,1.09 ± 0.063,1 ± 0.0057,1 ± 0.03,1.02 ± 0.012,0.9945 ± 0.005,1.04 ± 0.025,1.02 ± 0.02,1.01 ± 0.026,1.023 ± 0.0099
T47D BREAST,1.03 ± 0.05,1.042 ± 0.0044,0.988 ± 0.034,1.03 ± 0.038,1.03 ± 0.05,1.05 ± 0.014,1.1 ± 0.028,1.09 ± 0.022,1.02 ± 0.045,0.994 ± 0.066,1 ± 0.026,0.955 ± 0.024,1.04 ± 0.02,1.05 ± 0.014,1.04 ± 0.067,1.04 ± 0.006
SG28 HEADNECK,1.116 ± 0.011,1.107 ± 0.0035,0.956 ± 0.12,1.024 ± 0.0085,0.821 ± 0.039,0.79 ± 0.14,0.8065 ± 0.0078,0.843 ± 0.088,1.06 ± 0.11,1.05 ± 0.038,1.02 ± 0.025,1.02 ± 0.046,1.13 ± 0.043,0.954 ± 0.096,0.951 ± 0.081,0.95 ± 0.093
SUM159 BREAST,1.1 ± 0.02,1.12 ± 0.028,1.11 ± 0.016,1.08 ± 0.026,1.06 ± 0.021,1.09 ± 0.015,1.07 ± 0.028,1.04 ± 0.021,1.04 ± 0.063,0.972 ± 0.041,0.997 ± 0.012,0.873 ± 0.2,0.95 ± 0.12,0.965 ± 0.12,0.955 ± 0.13,0.959 ± 0.1
MDAMB134 BREAST,0.907 ± 0.16,0.994 ± 0.19,0.752 ± 0.12,0.9 ± 0.011,0.913 ± 0.26,0.663 ± 0.12,0.724 ± 0.1,0.74 ± 0.0085,1.16 ± 0.2,1.07 ± 0.086,1.15 ± 0.23,0.87 ± 0.014,1.04 ± 0.14,0.986 ± 0.14,0.907 ± 0.0014,0.976 ± 0.025
SG27 HEADNECK,1.1 ± 0.093,1.11 ± 0.04,0.984 ± 0.051,0.984 ± 0.1,1.13 ± 0.13,1.1 ± 0.041,1.15 ± 0.058,1.26 ± 0.1,0.996 ± 0.14,0.974 ± 0.089,1.01 ± 0.067,1.01 ± 0.056,1.02 ± 0.077,1.03 ± 0.11,0.915 ± 0.074,0.931 ± 0.17
93VU HEADNECK,1.03 ± 0.011,1.01 ± 0.036,1.07 ± 0.1,0.9817 ± 0.005,0.919 ± 0.067,0.887 ± 0.039,0.757 ± 0.055,0.789 ± 0.048,0.879 ± 0.12,0.834 ± 0.051,1.05 ± 0.031,0.976 ± 0.029,1.06 ± 0.042,1.04 ± 0.1,0.832 ± 0.027,0.775 ± 0.11
HCC202 BREAST,1.17 ± 0.19,1.354 ± 0.0028,1.39 ± 0.86,1.05 ± 0.41,0.774 ± 0.33,0.88 ± 0.36,1.19 ± 0.05,1.123 ± 0.005,1.32 ± 0.046,1.04 ± 0.17,1.16 ± 0.22,1.38 ± 0.23,1.4 ± 0.19,1.23 ± 0.057,1.35 ± 0.36,1.08 ± 0.062
S68 BREAST,1.01 ± 0.3,1.06 ± 0.074,1.04 ± 0.15,1.53 ± 0.22,0.832 ± 0.079,0.909 ± 0.13,0.891 ± 0.12,1.08 ± 0.26,1.1 ± 0.39,0.683 ± 0.17,0.816 ± 0.16,0.974 ± 0.13,1.35 ± 0.11,0.945 ± 0.054,0.823 ± 0.016,0.817 ± 0.11
PCI30 HEADNECK,0.958 ± 0.054,0.951 ± 0.062,1.07 ± 0.044,0.991 ± 0.083,1.05 ± 0.067,1.02 ± 0.072,1.07 ± 0.093,1.18 ± 0.1,0.872 ± 0.024,0.74 ± 0.04,0.98 ± 0.05,1 ± 0.073,0.991 ± 0.065,1.01 ± 0.026,0.964 ± 0.013,0.895 ± 0.049
MCF7 BREAST,0.925 ± 0.066,0.917 ± 0.043,0.945 ± 0.052,0.935 ± 0.036,0.941 ± 0.036,0.941 ± 0.068,0.941 ± 0.053,0.966 ± 0.017,0.815 ± 0.049,0.841 ± 0.028,0.844 ± 0.025,0.828 ± 0.03,0.913 ± 0.048,0.862 ± 0.026,0.889 ± 0.065,0.854 ± 0.039
HOSMNG BONE,0.939 ± 0.079,0.932 ± 0.025,0.994 ± 0.035,0.947 ± 0.047,1.05 ± 0.12,0.963 ± 0.028,1.11 ± 0.061,1.01 ± 0.05,1 ± 0.071,0.979 ± 0.11,0.992 ± 0.068,0.985 ± 0.07,1.04 ± 0.061,1.08 ± 0.08,1.01 ± 0.1,1.09 ± 0.038
U2OS BONE,1.04 ± 0.058,1.008 ± 0.0065,1.11 ± 0.037,1.044 ± 0.0091,1.03 ± 0.051,1.02 ± 0.045,0.939 ± 0.027,0.929 ± 0.029,0.998 ± 0.025,1.03 ± 0.029,1.05 ± 0.023,1.02 ± 0.022,1.07 ± 0.053,1.077 ± 0.0072,1.03 ± 0.011,1.05 ± 0.013
CADOES1 SOFT TISSUE,1.04 ± 0.11,0.908 ± 0.11,1 ± 0.18,0.926 ± 0.1,0.923 ± 0.019,0.973 ± 0.14,1.04 ± 0.055,0.962 ± 0.18,0.958 ± 0.066,0.961 ± 0.061,0.905 ± 0.13,0.92 ± 0.068,0.889 ± 0.16,0.94 ± 0.026,0.913 ± 0.033,0.988 ± 0.091
SG32 HEADNECK,0.943 ± 0.088,1.13 ± 0.18,1.09 ± 0.22,1.05 ± 0.057,0.792 ± 0.084,0.698 ± 0.27,0.827 ± 0.13,0.795 ± 0.08,0.996 ± 0.081,1.17 ± 0.013,1.22 ± 0.2,1.22 ± 0.25,0.95 ± 0.19,0.98 ± 0.12,1.02 ± 0.24,0.86 ± 0.022
HT1080 SOFT TISSUE,1.07 ± 0.028,1.08 ± 0.024,1.053 ± 0.0085,1.05 ± 0.021,1.03 ± 0.025,1.04 ± 0.016,1.07 ± 0.019,1.16 ± 0.063,1.01 ± 0.04,0.993 ± 0.015,1.004 ± 0.0098,1.039 ± 0.002,0.965 ± 0.023,1.01 ± 0.036,0.997 ± 0.036,0.969 ± 0.011
CME SYNOVIAL,1.28 ± 0.26,1.3 ± 0.18,1.31 ± 0.13,1.38 ± 0.22,0.978 ± 0.13,1.21 ± 0.2,1.14 ± 0.059,1.12 ± 0.059,1.27 ± 0.18,1.22 ± 0.11,1.29 ± 0.15,1.22 ± 0.064,1.294 ± 0.004,1.22 ± 0.072,1.21 ± 0.11,1.09 ± 0.06
HCC1954 BREAST,1.1 ± 0.09,1.1 ± 0.08,1.2 ± 0.11,1.19 ± 0.27,0.63 ± 0.2,0.682 ± 0.12,0.502 ± 0.072,0.674 ± 0.16,0.868 ± 0.014,0.837 ± 0.18,0.999 ± 0.22,0.932 ± 0.18,0.92 ± 0.028,0.896 ± 0.013,0.764 ± 0.065,0.921 ± 0.085
MDAMB361 BREAST,0.708 ± 0.053,0.758 ± 0.065,0.76 ± 0.12,0.776 ± 0.026,0.577 ± 0.099,0.561 ± 0.073,0.626 ± 0.099,0.591 ± 0.066,0.838 ± 0.094,0.87 ± 0.039,0.829 ± 0.083,0.812 ± 0.049,0.867 ± 0.055,0.8863 ± 0.0064,0.93 ± 0.083,0.842 ± 0.038
